Common to all, as to assay type: cell-based
The test system of experiment [1] is A549 (human lung carcinoma) cell line. The experiment is described as follows: In vitro cytotoxicity, MTT assay, A549. As to conditions: 24 h incubation with complex, read-out: IC50 values against A549 cancer cell line. The protocol: (§1) The in vitro cytotoxicity tests were carried out for the gold(I) precursor, labeled as complex 0 and the three synthesized complexes labeled as complex 1, 2 and 3 and compared with cisplatin (standard classical anticancer drug) against three human cancer cell lines, HCT15, HeLa and A549 using MTT assay. The dose dependent cytotoxic effect was obtained by the stipulated increase in concentrations of cisplatin and gold complexes 0-3 against the fixed number of human cancer cells. The IC50 concentration of cisplatin and complexes 0-3 for different human cancer cell lines was obtained from a curve between compound concentration and percentage viability of cells (FIGS. 5-10, Table 6).
(§2) In phase contrast micrographs, a decreasing cell density and deformed cellular morphology could be observed with increasing concentration of complexes 0-3 (FIGS. 11-13). […] The IC50 concentrations of gold complexes were calculated from a separate curve between complex concentration and % viability of cells plotted in Microsoft Excel 2007 (graphs not shown) using MTT assay data and explained by logarithmic regression equations (equations not shown).
(§3) The metal precursor (complex 0) and the three synthesized compounds 1-3 were evaluated for their in vitro cytotoxic activity against HCT15 (human cancer), HeLa (human cervical cancer) and A549 (human lung carcinoma) cell lines. […]
Background: Tetrazolium assays rely on reduction of a dye to a coloured formazan, in cell work by metabolically active cells.

For experiment [2], the system named is HeLa (human cervical cancer) cell line. The experiment is described as follows: In vitro cytotoxicity, MTT assay, HeLa. The following applies: 24 h incubation with complex, read-out: IC50 values against HeLa cancer cell line. The protocol: as §1, §2, §3
Experiment [3] concerns HCT15 (human cancer) cell line. The experiment is described as follows: In vitro cytotoxicity, MTT assay, HCT15. As to conditions: for pIC50: MTT assay, 24 h incubation with complex, read-out: IC50 values against HCT15 cancer cell line; for IC50 against HCT15 compared with cisplatin: in words. The protocol: as §1
In phase contrast micrographs, a decreasing cell density and deformed cellular morphology could be observed with increasing concentration of complexes 0-3 (FIGS. 11-13). The dose dependent decrease in cell density was further supported by assessment of decreasing percent cell viability in MTT assay (FIGS. 5-10). The IC50 concentrations of gold complexes were calculated from a separate curve between complex concentration and % viability of cells plotted in Microsoft Excel 2007 (graphs not shown) using MTT assay data and explained by logarithmic regression equations (equations not shown).
The metal precursor (complex 0) and the three synthesized compounds 1-3 were evaluated for their in vitro cytotoxic activity against HCT15 (human cancer), HeLa (human cervical cancer) and A549 (human lung carcinoma) cell lines. The cells were seeded at 4×10^3 cells/well in 100 μL DMEM (Dulbecco's Modified Eagle's Medium) containing 10%. FBS (Fetal Bovine Serum) in 96-wells tissue culture plate and incubated for 72 h at 37° C., 5% CO2 in air and 90% relative humidity in CO2 incubator. After incubation, 100 μL of 50, 25, 12.5 and 6.25 μg/mL solutions of complexes (0-3), prepared in DMEM, were added to cells and the cultures were incubated for 24 h. The medium of wells was discarded and 100 μL DMEM containing MTT (3-(4,5-dimethylthiazol-2-yl)-2,5-diphenyltetrazolium bromide) (5 mg/mL) was added to the wells and incubated in CO2 incubator at 37° C. in dark for 4 h. After incubation, a purple colored formazan (artificial chromogenic dye, product of the reduction of water insoluble tetrazolium salts e.g., MMT by dehydrogenases and reductases) in the cells is produced and appeared as dark crystals in the bottom of the wells. The medium of culture was discarded from each well carefully to avoid disruption of monolayer and 100 μl of dimethyl sulfoxide (DMSO) was added in each well. […] The absorbance of the 96-wells plate was taken at 570 nm with Labsystems Multiskan EX-Enzyme-linked immunosorbent assay (EX-ELISA) reader against a reagent blank.

pIC50: −log10 of the molar value.

In the case of “1,3-Bis(2,6-di-isopropylphenyl)imidazol-2-ylidenegold(I)chloride [Complex 0]”, the pIC50 in experiment [1] was 3.74; in experiment [2], 3.76; in experiment [3] it was 3.91.

Regarding `N.N.[Cl][Pt][Cl]` [Cisplatin, cisplatin], in experiment [3], the negative logarithm of the IC50 (pIC50) is 4.53.

In the case of `CCN(CC)C(=S)[S][Au][CH]1N(c2c(C(C)C)cccc2C(C)C)C=CN1c1c(C(C)C)cccc1C(C)C` [Complex 2, [Au(Ipr)(S2CN(C2H5)2)]], the “IC50 against HCT15 compared with cisplatin” value in experiment [3] is “moderate potency but better than cisplatin”.

Regarding `CC(C)c1cccc(C(C)C)c1N1C=CN(c2c(C(C)C)cccc2C(C)C)[CH]1[Au][S]C(=S)N(Cc1ccccc1)Cc1ccccc1` [Complex 3, [Au(Ipr)(S2CN(C7H7)2)]], the “IC50 against HCT15 compared with cisplatin” value in experiment [3] is listed as “moderate potency but better than cisplatin”.

In general, pIC50 refers to the IC50 on a negative log10 scale, so that one unit is a factor of ten.
